Source: patent EP1561465A2, “Methods of use of fluoroquinolone compounds against bacteria” (LG Life Sciences, Ltd., priority 1999, dated 2001)
Values after ≈ are worked out from the molar mass of the structure shown. Where two headings read alike, the source gives them in different places.

How the values were obtained:
Assay type in all cases: cell-based
Staphylococcus aureus [1] = assay: microbe, parasite or virus in culture; details: for MIC90: read-out: MIC90
Enterococcus faecium = assay: MIC by NCCLS broth microdilution, 1100 Japanese clinical isolates 1997-1998; details: for MIC: Enterococcus faecium
Proteus mirabilis = assay: as above; details: Proteus mirabilis (n=30); for MIC50: read-out: MIC50; for MIC90: read-out: MIC90
Klebsiella oxytoca = assay: as above; details: Klebsiella oxytoca (n=40)
Streptococcus pyogenes = assay: MIC by NCCLS reference broth microdilution, 450 respiratory tract pathogens; details: Streptococcus pyogenes
Yersinia enterocolitica = assay: MIC by agar dilution (NCCLS M7-A4), 288 enteropathogenic isolates, gemifloxacin and 15 other antimicrobials; details: Yersinia enterocolitica N= 22
Moraxella catarrhalis = assay: MIC by two-fold serial agar dilution, Sensitivity Disk agar-N (Kitasato isolates); details: Moraxella catarrhalis (22)
Haemophilus influenzae = assay: MIC by broth microdilution (NCCLS), dried MicroScan panels, clinical isolates 1998-1999; details: for MIC90: Haemophilus influenzae
Staphylococcus aureus [2] = assay: MIC by NCCLS reference broth microdilution, 450 respiratory tract pathogens
Staphylococcus aureus [3] = assay: MIC by agar dilution (NCCLS), 411 isolates Buenos Aires 1998-99; details: for MIC90: Staphylococcus aureus
[4] = Staphylococcus aureus, S. aureus KU2240, mutant type Wild (wild strain)
[5] = Staphylococcus aureus, S. aureus KU2241, mutant type NorA (efflux-mediated quinolone resistant)
[6] = Staphylococcus aureus, S. aureus KU2242, mutant type T (DNA topoisomerase IV)
[7] = Staphylococcus aureus, S. aureus KU2243, mutant type G+T (DNA gyrase and topoisomerase IV)
[8] = Staphylococcus aureus, S. aureus KU2244, mutant type G (DNA gyrase)
[9] = Staphylococcus aureus, S. aureus KU2246, mutant type T (DNA topoisomerase IV)
[10] = Enterococcus faecium (vanA) vancomycin resistant, strain TMS1
[11] = Enterococcus faecium (vanA) vancomycin resistant, strain TMS2
[12] = Enterococcus faecium (vanA) vancomycin resistant, strain TMS3
[13] = Enterococcus faecium (vanA) vancomycin resistant, strain TMS4
[14] = Enterococcus faecium (vanA) vancomycin resistant, strain TMS5
[15] = Enterococcus laecium (van B) vancomycin resistant, strain TMS6
[16] = Enterococcus laecium (van B) vancomycin resistant, strain TMS7
[17] = Streptococcus pyogenes (n = 100)
[18] = erythromycin resistant C phenotype [MLSB] (n = 20)
[19] = erythromycin resistant I phenotype [MLSB] (n = 20)
[20] = erythromycin resistant M phenotype (n = 20)
[21] = Staphylococcus aureus, Methicillin-susceptible (9)
[22] = Haemophilus influenzae (300 isolates)
[23] = β-lactamase positive and erythromycin resistant (n = 10)
[24] = S. aureus, Methicillin resistant (n = 14)
[25] = S. aureus, Methicillin susceptible (n = 66)

For NC1CCN(c2nc3c(cc2F)c(=O)c(C(=O)O)cn3-c2ccc(F)cc2F)C1 (centres unmarked) [Tosufloxacin, tosufloxacin], the MIC (Staphylococcus aureus [1]; [4]) was 0.063 µg/mL (≈ 0.156 µM), the MIC (Staphylococcus aureus [1]; [5]) was 0.125 µg/mL (≈ 0.309 µM) and the MIC (Staphylococcus aureus [1]; [6]) was 0.25 µg/mL (≈ 0.618 µM). The MIC (Staphylococcus aureus [1]; [7]) was over 128 µg/mL, the MIC (Staphylococcus aureus [1]; [8]) was 0.125 µg/mL (≈ 0.309 µM) and the MIC (Staphylococcus aureus [1]; [9]) was 0.5 µg/mL (≈ 1.24 µM). For the same molecule, the MIC50 (Enterococcus faecium; Enterococcus faecium (n=39)) was over 16 µg/mL, the MIC90 (Enterococcus faecium; Enterococcus faecium (n=39)) was over 16 µg/mL and the MIC (Enterococcus faecium; [10]) was over 16 µg/mL. For the same molecule, the MIC (Enterococcus faecium; [11]) was 2 µg/mL (≈ 4.95 µM), the MIC (Enterococcus faecium; [12]) was over 16 µg/mL and the MIC (Enterococcus faecium; [13]) was over 16 µg/mL. The MIC (Enterococcus faecium; [14]) was 4 µg/mL (≈ 9.89 µM), the MIC (Enterococcus faecium; [15]) was over 16 µg/mL and the MIC (Enterococcus faecium; [16]) was over 16 µg/mL. For the same molecule, the “MIC Range” value (Proteus mirabilis) was 0.063 to 16 µg/mL, the MIC50 (Proteus mirabilis) was 0.25 µg/mL (≈ 0.618 µM) and the MIC90 (Proteus mirabilis) was 0.5 µg/mL (≈ 1.24 µM). The MIC50 (Klebsiella oxytoca) was 0.032 µg/mL (≈ 0.0791 µM), the MIC90 (Klebsiella oxytoca) was 4 µg/mL (≈ 9.89 µM) and the “MIC Range” value (Klebsiella oxytoca) was at most 0.008 to 16 µg/mL.

With N[C@@H]1[C@H]2CN(c3nc4c(cc3F)c(=O)c(C(=O)O)cn4-c3ccc(F)cc3F)C[C@@H]12 [Trovafloxacin, trovafloxacin] the MIC (Streptococcus pyogenes; [17]) was 0.03 to 1 µg/mL (≈ 0.0721 to 2.4 µM), the MIC50 (Streptococcus pyogenes; [17]) was 0.12 µg/mL (≈ 0.288 µM) and the MIC90 (Streptococcus pyogenes; [17]) was 0.25 µg/mL (≈ 0.6 µM). It also gave an MIC (Streptococcus pyogenes; [18]) of 0.03 to 0.12 µg/mL (≈ 0.0721 to 0.288 µM), an MIC50 (Streptococcus pyogenes; [18]) of 0.06 µg/mL (≈ 0.144 µM) and an MIC90 (Streptococcus pyogenes; [18]) of 0.12 µg/mL (≈ 0.288 µM). The MIC (Streptococcus pyogenes; [19]) was 0.06 to 0.5 µg/mL (≈ 0.144 to 1.2 µM), the MIC50 (Streptococcus pyogenes; [19]) was 0.12 µg/mL (≈ 0.288 µM) and the MIC90 (Streptococcus pyogenes; [19]) was 0.5 µg/mL (≈ 1.2 µM). It also gave an MIC (Streptococcus pyogenes; [20]) of 0.06 to 0.5 µg/mL (≈ 0.144 to 1.2 µM), an MIC50 (Streptococcus pyogenes; [20]) of 0.12 µg/mL (≈ 0.288 µM) and an MIC90 (Streptococcus pyogenes; [20]) of 0.12 µg/mL (≈ 0.288 µM). It also gave an MIC (Streptococcus pyogenes; fully susceptible (n = 20)) of 0.06 to 1 µg/mL (≈ 0.144 to 2.4 µM), an MIC50 (Streptococcus pyogenes; fully susceptible (n = 20)) of 0.12 µg/mL (≈ 0.288 µM) and an MIC90 (Streptococcus pyogenes; fully susceptible (n = 20)) of 0.25 µg/mL (≈ 0.6 µM). For the same molecule, the MIC (Streptococcus pyogenes; multi-drug resistant (n = 20)) was 0.12 to 0.25 µg/mL (≈ 0.288 to 0.6 µM), the MIC50 (Streptococcus pyogenes; multi-drug resistant (n = 20)) was 0.12 µg/mL (≈ 0.288 µM) and the MIC90 (Streptococcus pyogenes; multi-drug resistant (n = 20)) was 0.25 µg/mL (≈ 0.6 µM). For the same molecule, the MIC (Yersinia enterocolitica; 24 h, read-out: MIC (mg/L) Range) was 0.015 to 0.25 mg/L (≈ 0.036 to 0.6 µM), the MIC (Yersinia enterocolitica; read-out: MIC (mg/L) 50%) was 0.06 mg/L (≈ 0.144 µM) and the MIC (Yersinia enterocolitica; read-out: MIC (mg/L) 90%) was 0.06 mg/L (≈ 0.144 µM). The “MIC Range” value (Staphylococcus aureus [1]; Methicillin-resistant (38)) was 0.031 to 16 µg/mL, the “MIC Range” value (Staphylococcus aureus [1]; Methicillin-susceptible (9)) was 0.031 to 0.5 µg/mL and the MIC90 (Staphylococcus aureus [1]; Staphylococcus aureus, Methicillin-resistant (38)) was 16 µg/mL (≈ 38.4 µM). It also gave an MIC50 (Staphylococcus aureus [1]; [21]) of 0.031 µg/mL (≈ 0.0745 µM), an MIC90 (Staphylococcus aureus [1]; [21]) of 0.5 µg/mL (≈ 1.2 µM) and an MIC (Staphylococcus aureus [1]; [4]) of 0.063 µg/mL (≈ 0.151 µM). The MIC (Staphylococcus aureus [1]; [5]) was 0.063 µg/mL (≈ 0.151 µM), the MIC (Staphylococcus aureus [1]; [6]) was 0.25 µg/mL (≈ 0.6 µM) and the MIC (Staphylococcus aureus [1]; [7]) was 32 µg/mL (≈ 76.9 µM). For the same molecule, the MIC (Staphylococcus aureus [1]; [8]) was 0.063 µg/mL (≈ 0.151 µM), the MIC (Staphylococcus aureus [1]; [9]) was 0.25 µg/mL (≈ 0.6 µM) and the MIC50 (Moraxella catarrhalis) was 0.016 µg/mL (≈ 0.0384 µM). The MIC90 (Moraxella catarrhalis) was 0.031 µg/mL (≈ 0.0745 µM), the “MIC Range” value (Moraxella catarrhalis) was 0.016 to 0.031 µg/mL and the MIC50 (Haemophilus influenzae; [22]) was at most 0.015 µg/mL. The “MIC Range” value (Haemophilus influenzae; [22]) was at most 0.015 to 0.25 µg/mL, the MIC90 (Haemophilus influenzae; [22]) was at most 0.015 µg/mL and the MIC90 (Haemophilus influenzae; β-lactamase negative (234)) was at most 0.015 µg/mL. It also gave an MIC90 (Haemophilus influenzae; β-lactamase positive (66)) of 0.03 µg/mL (≈ 0.0721 µM), an MIC (Staphylococcus aureus [2]; Staphylococcus aureus (n = 50)) of 0.00375 to 0.5 µg/mL (≈ 0.00901 to 1.2 µM) and an MIC50 (Staphylococcus aureus [2]; Staphylococcus aureus (n = 50)) of 0.12 µg/mL (≈ 0.288 µM). The MIC90 (Staphylococcus aureus [2]; Staphylococcus aureus (n = 50)) was 0.25 µg/mL (≈ 0.6 µM), the MIC (Staphylococcus aureus [2]; β-lactamase negative (n = 20)) was 0.00375 to 0.25 µg/mL (≈ 0.00901 to 0.6 µM) and the MIC50 (Staphylococcus aureus [2]; β-lactamase negative (n = 20)) was 0.12 µg/mL (≈ 0.288 µM). For the same molecule, the MIC90 (Staphylococcus aureus [2]; β-lactamase negative (n = 20)) was 0.25 µg/mL (≈ 0.6 µM), the MIC (Staphylococcus aureus [2]; β-lactamase positive (n = 20)) was 0.06 to 0.5 µg/mL (≈ 0.144 to 1.2 µM) and the MIC50 (Staphylococcus aureus [2]; β-lactamase positive (n = 20)) was 0.12 µg/mL (≈ 0.288 µM). It also gave an MIC90 (Staphylococcus aureus [2]; β-lactamase positive (n = 20)) of 0.25 µg/mL (≈ 0.6 µM), an MIC (Staphylococcus aureus [2]; [23]) of 0.00375 to 0.25 µg/mL (≈ 0.00901 to 0.6 µM) and an MIC50 (Staphylococcus aureus [2]; [23]) of 0.12 µg/mL (≈ 0.288 µM). The MIC90 (Staphylococcus aureus [2]; [23]) was 0.25 µg/mL (≈ 0.6 µM), the MIC50 (Enterococcus faecium; Enterococcus faecium (n=39)) was 16 µg/mL (≈ 38.4 µM) and the MIC90 (Enterococcus faecium; Enterococcus faecium (n=39)) was 64 µg/mL (≈ 154 µM). For the same molecule, the “MIC Range” value (Enterococcus faecium; Enterococcus faecium (n=39)) was 0.25 to 64 µg/mL, the MIC (Enterococcus faecium; [10]) was 8 µg/mL (≈ 19.2 µM) and the MIC (Enterococcus faecium; [11]) was 1 µg/mL (≈ 2.4 µM). It also gave an MIC (Enterococcus faecium; [12]) of 8 µg/mL (≈ 19.2 µM), an MIC (Enterococcus faecium; [13]) of 8 µg/mL (≈ 19.2 µM) and an MIC (Enterococcus faecium; [14]) of 2 µg/mL (≈ 4.8 µM). For the same molecule, the MIC (Enterococcus faecium; [15]) was 32 µg/mL (≈ 76.9 µM), the MIC (Enterococcus faecium; [16]) was 32 µg/mL (≈ 76.9 µM) and the “MIC Range” value (Proteus mirabilis) was 0.063 to 16 µg/mL. The MIC50 (Proteus mirabilis) was 0.25 µg/mL (≈ 0.6 µM), the MIC90 (Proteus mirabilis) was 0.5 µg/mL (≈ 1.2 µM) and the “Resistance (%)” value (Staphylococcus aureus [3]; [24]) was 7%. The “Resistance (%)” value (Staphylococcus aureus [3]; [25]) was 0%, the “MIC Range” value (Staphylococcus aureus [3]; Staphylococcus aureus (n = 80)) was at most 0.004 to 8 µg/mL and the MIC90 (Staphylococcus aureus [3]; [24]) was 4 µg/mL (≈ 9.61 µM). It also gave an MIC90 (Staphylococcus aureus [3]; [25]) of 0.06 µg/mL (≈ 0.144 µM), an MIC90 (Staphylococcus aureus [3]; Staphylococcus aureus (n = 80)) of 2 µg/mL (≈ 4.8 µM) and an MIC50 (Klebsiella oxytoca) of 0.032 µg/mL (≈ 0.0769 µM). The MIC90 (Klebsiella oxytoca) was 8 µg/mL (≈ 19.2 µM) and the “MIC Range” value (Klebsiella oxytoca) was at most 0.008 to 32 µg/mL.
